Like-named read-outs stand apart in the source and are kept apart here.
What was measured:
M12 cells = system: M12 cells; design: method as in PMID 25090971; details: cited from earlier work
MCD4 cells [1] = test: F-actin stress fiber staining (phalloidin); format: cell-based, mouse; details: compound 30 µM, 1 h
[2] = system: complex of AURKA and TPX2; design: method as in PMID 26732741; details: cited from earlier work
primary IMCD cells [3] = test: AQP2 redistribution, immunofluorescence microscopy; details: compound 20 µM, 1 h (Aurora-A inhibitor I 1-30 µM), AVP 100 nM, 30 min
MCD4 cells [4] = test: AQP2 redistribution, immunofluorescence microscopy; details: compound 30 µM, 1 h (Aurora-A inhibitor I 1-30 µM), forskolin 30 µM, 30 min
[5] = system: CFL1 phosphorylation in MCD4 cells; test: CFL1 phosphorylation, Western blotting; format: cell-based, mouse; details: compound 30 µM, 1 h
primary IMCD cells [6] = test: F-actin stress fiber staining (phalloidin); format: cell-based, rat; details: compound 20 µM, 1 h
AURKA = target: T1, AURKA (Homo sapiens, UniProt O14965); test: NanoBRET assay in HEK293T cells; format: cell-based; details: NanoBRET
T1 construct: full-length wild-type AURKA, AURKB, and AURKC were obtained as plasmids cloned in frame with a C-terminal NanoLuc-fusion; host or cells: HEK293T
T1 sequence (O14965 1-403): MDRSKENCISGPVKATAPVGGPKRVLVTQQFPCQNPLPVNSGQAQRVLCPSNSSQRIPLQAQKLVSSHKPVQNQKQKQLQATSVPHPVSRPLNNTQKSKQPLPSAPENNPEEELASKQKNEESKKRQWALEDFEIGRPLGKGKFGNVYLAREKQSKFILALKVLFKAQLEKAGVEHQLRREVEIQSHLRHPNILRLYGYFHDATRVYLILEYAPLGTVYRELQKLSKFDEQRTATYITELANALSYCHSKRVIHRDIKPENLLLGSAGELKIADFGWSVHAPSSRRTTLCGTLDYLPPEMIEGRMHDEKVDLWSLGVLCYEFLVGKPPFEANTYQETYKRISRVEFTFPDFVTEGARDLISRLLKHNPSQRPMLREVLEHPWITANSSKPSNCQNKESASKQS

AURKC = target: T2, AURKC (Homo sapiens, UniProt Q9UQB9); test: NanoBRET assay in HEK293T cells; format: cell-based; details: NanoBRET, Figure 6B, read-out: affinity to intracellular AURKC
T2 construct: full-length wild-type AURKA, AURKB, and AURKC were obtained as plasmids cloned in frame with a C-terminal NanoLuc-fusion; host or cells: HEK293T
T2 sequence (Q9UQB9 1-309): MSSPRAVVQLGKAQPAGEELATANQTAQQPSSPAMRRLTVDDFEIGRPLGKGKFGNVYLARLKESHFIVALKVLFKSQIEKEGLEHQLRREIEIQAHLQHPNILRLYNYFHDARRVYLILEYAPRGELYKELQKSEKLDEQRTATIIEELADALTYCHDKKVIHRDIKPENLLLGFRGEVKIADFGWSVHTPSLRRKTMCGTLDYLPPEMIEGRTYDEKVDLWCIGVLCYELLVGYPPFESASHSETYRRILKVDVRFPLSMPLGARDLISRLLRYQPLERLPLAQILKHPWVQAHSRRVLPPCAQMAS

AURKB = AURKB (Homo sapiens, UniProt Q96GD4); test: NanoBRET assay in HEK293T cells; format: cell-based; design: full-length wild-type AURKA, AURKB, and AURKC were obtained as plasmids cloned in frame with a C-terminal NanoLuc-fusion; host or cells: HEK293T; details: NanoBRET
MCD4 cells [7] = test: MTS assay (cell viability); format: cell-based, mouse; details: 30 µM, 10 µM or 1 µM, 1 h; compared to untreated cells
STK39 = target: T3, STK39 (Homo sapiens, UniProt Q9UEW8); test: Thermal shift assay; format: binding; details: read-out: ΔTm STK39
T3 construct: purchased in-house thermal shift (DSF) kinase panel (SGC Frankfurt); Promega NanoBRET for AURKA/B/C

CAMKK2 = target: T4, CAMKK2 (Homo sapiens, UniProt Q96RR4); test: Thermal shift assay; format: binding; details: read-out: ΔTm CAMKK2
T4 construct: purchased in-house thermal shift (DSF) kinase panel (SGC Frankfurt); Promega NanoBRET for AURKA/B/C

STK3 = target: T5, STK3 (Homo sapiens, UniProt Q13188); test: Thermal shift assay; format: binding; details: read-out: ΔTm STK3
T5 construct: purchased in-house thermal shift (DSF) kinase panel (SGC Frankfurt); Promega NanoBRET for AURKA/B/C
T5 sequence (Q13188 16-313): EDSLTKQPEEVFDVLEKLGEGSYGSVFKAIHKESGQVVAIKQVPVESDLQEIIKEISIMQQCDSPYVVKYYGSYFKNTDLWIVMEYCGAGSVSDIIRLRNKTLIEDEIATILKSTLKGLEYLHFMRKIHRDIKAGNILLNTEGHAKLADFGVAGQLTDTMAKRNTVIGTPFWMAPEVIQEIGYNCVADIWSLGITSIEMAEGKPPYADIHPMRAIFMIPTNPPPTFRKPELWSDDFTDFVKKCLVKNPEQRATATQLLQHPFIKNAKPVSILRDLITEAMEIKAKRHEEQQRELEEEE

STK17A = target: T6, STK17A (Homo sapiens, UniProt Q9UEE5); test: Thermal shift assay; format: binding; details: read-out: ΔTm STK17A
T6 construct: purchased in-house thermal shift (DSF) kinase panel (SGC Frankfurt); Promega NanoBRET for AURKA/B/C
T6 sequence (Q9UEE5 61-321): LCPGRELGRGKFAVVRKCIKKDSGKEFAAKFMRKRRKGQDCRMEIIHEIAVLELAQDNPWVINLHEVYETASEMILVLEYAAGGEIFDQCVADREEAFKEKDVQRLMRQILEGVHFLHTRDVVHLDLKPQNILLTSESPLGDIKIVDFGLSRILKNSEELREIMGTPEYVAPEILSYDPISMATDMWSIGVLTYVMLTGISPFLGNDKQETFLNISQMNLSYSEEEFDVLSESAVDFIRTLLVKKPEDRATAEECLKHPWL

[8] = n = 2, mean, Figure 6B, read-out: affinity to intracellular AURKA
[9] = HEK293T cells overexpressing the kinase, Table 2, read-out: AURKB IC50
[10] = HEK293T cells overexpressing the kinase, Table 2, read-out: AURKA IC50

Chain of AURKB (Q96GD4 whole entry, the tested form may be a part): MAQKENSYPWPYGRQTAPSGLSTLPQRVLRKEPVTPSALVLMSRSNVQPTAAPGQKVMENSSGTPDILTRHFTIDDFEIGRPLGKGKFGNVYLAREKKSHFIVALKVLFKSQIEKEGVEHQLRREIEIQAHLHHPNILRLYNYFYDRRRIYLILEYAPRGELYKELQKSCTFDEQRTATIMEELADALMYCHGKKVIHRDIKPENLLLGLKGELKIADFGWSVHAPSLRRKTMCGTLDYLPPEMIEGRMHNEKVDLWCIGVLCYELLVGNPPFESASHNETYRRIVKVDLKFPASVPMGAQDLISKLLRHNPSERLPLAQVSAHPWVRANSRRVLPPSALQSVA
T4 sequence (Q96RR4 161-449): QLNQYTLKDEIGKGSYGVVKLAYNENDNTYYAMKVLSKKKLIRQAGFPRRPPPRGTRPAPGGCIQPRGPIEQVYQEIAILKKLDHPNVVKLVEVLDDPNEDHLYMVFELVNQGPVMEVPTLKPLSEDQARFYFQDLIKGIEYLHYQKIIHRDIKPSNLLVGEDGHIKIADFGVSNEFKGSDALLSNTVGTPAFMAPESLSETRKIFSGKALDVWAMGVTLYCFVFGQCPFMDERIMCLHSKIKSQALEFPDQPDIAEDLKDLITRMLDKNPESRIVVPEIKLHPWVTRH

SMILES: COc1cc(Nc2ncc3c(n2)-c2ccc(Cl)cc2C(c2c(F)cccc2OC)=NC3)ccc1C(=O)O [Alisertib, reference compound]
- phosphorylation of CFL1 (M12 cells): increased
- effect on actin stress fibers (MCD4 cells [1]): promoted or maintained the formation of actin stress fibers
- decrease of affinity for AURKA in the presence of TPX2 [2]: 5.8 fold
- inhibition of the AVP-induced redistribution of AQP2 to the plasma membrane (primary IMCD cells [3]): significantly inhibited
- inhibition of the forskolin-induced redistribution of AQP2 to the plasma membrane (MCD4 cells [4]): significantly inhibited
- CFL1 phosphorylation in resting cells ([5]; no forskolin): not reduced
- effect on actin stress fibers (primary IMCD cells [6]): promoted or maintained the formation of actin stress fibers

SMILES: CCN(CCO)CCCOc1ccc2c(Nc3cc(CC(=O)Nc4cccc(F)c4)n[nH]3)ncnc2c1 [Barasertib-HQPA, reference compound]
- effect on actin stress fibers (MCD4 cells [1]): resembled those of the control cells
- inhibition of the AVP-induced redistribution of AQP2 to the plasma membrane (primary IMCD cells [3]): No inhibitory effect
- inhibition of the forskolin-induced redistribution of AQP2 to the plasma membrane (MCD4 cells [4]): did not
- CFL1 phosphorylation ([5]; absence and presence of forskolin): no effect
- effect on actin stress fibers (primary IMCD cells [6]): resembled those of the control cells

SMILES: O=C(O)Cc1ccc(Nc2ncc(F)c(Nc3ccc(C(=O)Nc4ccccc4Cl)cc3)n2)cc1 [ERJ2-02]
- IC50 (AURKA; [8]): 1.33 µM
- IC50 (AURKC; n = 2, bounds): > 50 µM
- IC50 (AURKB; [9]): > 50 µM

SMILES: O=C(Nc1ccccc1Cl)c1ccc(Nc2nc(Nc3ccc(CC(=O)N4CCOCC4)cc3)ncc2F)cc1 [ERJ2-03]
- IC50 (AURKA; [10]): 1.08 µM
- inhibition of the forskolin-induced redistribution of AQP2 to the plasma membrane (MCD4 cells [4]): not being an inhibitor
- viability of MCD4 cells (MCD4 cells [7]): reduced by 10 or 30 µM
- IC50 (AURKC; n = 2, bounds): > 50 µM
- IC50 (AURKB; [9]): > 50 µM

SMILES: COCCNC(=O)Cc1ccc(Nc2ncc(F)c(Nc3ccc(C(=O)Nc4ccccc4Cl)cc3)n2)cc1 [ERJ2-05]
- IC50 (AURKA; [8]): 0.24 µM
- viability of MCD4 cells (MCD4 cells [7]): partly increased
- IC50 (AURKC; n = 2, mean): 12.9 µM
- IC50 (AURKB; n = 2, mean, Figure 6B, read-out: affinity to intracellular AURKB): 16.8 µM

SMILES: O=C(Cc1ccc(Nc2ncc(F)c(Nc3ccc(C(=O)Nc4ccccc4Cl)cc3)n2)cc1)NCCO [ERJ2-08]
- IC50 (AURKA; [10]): 0.237 µM
- viability of MCD4 cells (MCD4 cells [7]): partly increased
- IC50 (AURKC; n = 2, mean): 17 µM
- IC50 (AURKB; [9]): 16.1 µM

SMILES: O=C(O)c1ccc(Nc2ncc(F)c(Nc3ccc(C(=O)O)cc3)n2)cc1 [ERJ2-09]
- IC50 (AURKB; [9]): > 50 µM

SMILES: O=C(O)Cc1ccc(Nc2ncc(F)c(Nc3ccc(C(=O)Nc4ccccc4)cc3)n2)cc1 [ERJ2-10]
- IC50 (AURKA; [10]): 22.8 µM
- IC50 (AURKC; n = 2, bounds): > 50 µM
- IC50 (AURKB; [9]): > 50 µM

SMILES: CCN1CCN(C(=O)Cc2ccc(Nc3ncc(F)c(Nc4ccc(C(=O)N5CCN(CC)CC5)cc4)n3)cc2)CC1 [ERJ2-13]
- IC50 (AURKA; [10]): 37.3 µM
- IC50 (AURKC; n = 2, bounds): > 50 µM
- IC50 (AURKB; [9]): > 50 µM

SMILES: CCN1CCN(C(=O)Cc2ccc(Nc3ncc(F)c(Nc4ccc(C(=O)NCCN5CCCC5)cc4)n3)cc2)CC1 [ERJ2-16]
- IC50 (AURKA; [10]): > 50 µM
- IC50 (AURKC; n = 2, bounds): > 50 µM
- IC50 (AURKB; [9]): > 50 µM

SMILES: CN[C@@H]1C[C@H]2O[C@@](C)([C@@H]1OC)n1c3ccccc3c3c4c(c5c6ccccc6n2c5c31)C(=O)NC4 [Staurosporine, reference compound]
- ΔTm at 10 µM (STK39): 9.9 °C
- ΔTm at 10 µM (CAMKK2): 24.2 °C
- ΔTm at 10 µM (STK3): 13.7 °C
- ΔTm at 10 µM (STK17A): 12.9 °C
